Assay results from ChEMBL document CHEMBL3588760, “Inhibitors of melanogenesis in B16 melanoma 4A5 cells from flower buds of Lawsonia inermis (Henna)” (Bioorg Med Chem Lett, 2015).

Tests used:
[1] = Inhibition of melanogenesis in theophylline-stimulated mouse B16-4A5 cells at 3 uM after 72 hrs by microplate reader analysis relative to control; type: functional; conditions: B16-4A5, 72 h
[2] = Cytotoxicity against mouse B16-4A5 cells assessed as cell viability at 3 uM after 70 hrs by WST-8 assay relative to control; type: cell-based; conditions: read-out: Activity
[3] = target: Plasminogen (Homo sapiens) (UniProt P00747); assay: Inhibition of plasmin (unknown origin) at 100 uM after 18 hrs by arianor mahogany dye-based fibrin plate assay relative to control
[4] = Cytotoxicity against mouse B16-4A5 cells assessed as cell viability at 10 uM after 70 hrs by WST-8 assay relative to control; type: cell-based; conditions: read-out: Activity
[5] = Cytotoxicity against mouse B16-4A5 cells assessed as cell viability at 1 uM after 70 hrs by WST-8 assay relative to control; type: cell-based; conditions: read-out: Activity
[6] = Inhibition of melanogenesis in theophylline-stimulated mouse B16-4A5 cells at 1 uM after 72 hrs by microplate reader analysis relative to control; type: functional; conditions: B16-4A5, 72 h
[7] = Inhibition of melanogenesis in theophylline-stimulated mouse B16-4A5 cells at 10 uM after 72 hrs by microplate reader analysis relative to control; type: functional; conditions: B16-4A5, 72 h
[8] = Downregulation of TRP-2 mRNA expression in theophylline-stimulated mouse B16-4A5 cells assessed as ratio of TRP-2 mRNA to beta-actin mRNA level at 30 uM after 72 hrs by qPCR analysis; type: functional, cell-based
[9] = Inhibition of melanogenesis in theophylline-stimulated mouse B16-4A5 cells at 30 uM after 72 hrs by microplate reader analysis relative to control; type: functional; conditions: B16-4A5, 72 h
[10] = Downregulation of TRP-1 mRNA expression in theophylline-stimulated mouse B16-4A5 cells assessed as ratio of TRP-1 mRNA to beta-actin mRNA level at 10 uM after 72 hrs by qPCR analysis; type: functional, cell-based
[11] = Downregulation of tyrosinase mRNA expression in theophylline-stimulated mouse B16-4A5 cells assessed as ratio of tyrosinase mRNA to beta-actin mRNA level at 30 uM after 72 hrs by qPCR analysis; type: functional, cell-based
[12] = Downregulation of TRP-1 mRNA expression in theophylline-stimulated mouse B16-4A5 cells assessed as ratio of TRP-1 mRNA to beta-actin mRNA level at 30 uM after 72 hrs by qPCR analysis; type: functional, cell-based
[13] = Downregulation of tyrosinase mRNA expression in theophylline-stimulated mouse B16-4A5 cells assessed as ratio of tyrosinase mRNA to beta-actin mRNA level at 10 uM after 72 hrs by qPCR analysis; type: functional, cell-based
[14] = Downregulation of TRP-2 mRNA expression in theophylline-stimulated mouse B16-4A5 cells assessed as ratio of TRP-2 mRNA to beta-actin mRNA level at 10 uM after 72 hrs by qPCR analysis; type: functional, cell-based
[15] = Downregulation of TRP-1 mRNA expression in theophylline-stimulated mouse B16-4A5 cells assessed as ratio of TRP-1 mRNA to beta-actin mRNA level at 3 uM after 72 hrs by qPCR analysis; type: functional, cell-based
[16] = Inhibition of melanogenesis in theophylline-stimulated mouse B16-4A5 cells at 100 uM after 72 hrs by microplate reader analysis relative to control; type: functional; conditions: B16-4A5, 72 h
[17] = Downregulation of tyrosinase mRNA expression in theophylline-stimulated mouse B16-4A5 cells assessed as ratio of tyrosinase mRNA to beta-actin mRNA level at 3 uM after 72 hrs by qPCR analysis; type: functional, cell-based
[18] = Downregulation of TRP-2 mRNA expression in theophylline-stimulated mouse B16-4A5 cells assessed as ratio of TRP-2 mRNA to beta-actin mRNA level at 3 uM after 72 hrs by qPCR analysis; type: functional, cell-based
[19] = Cytotoxicity against mouse B16-4A5 cells assessed as cell viability at 100 uM after 70 hrs by WST-8 assay relative to control; type: cell-based; conditions: read-out: Activity
[20] = Cytotoxicity against mouse B16-4A5 cells assessed as cell viability at 30 uM after 70 hrs by WST-8 assay relative to control; type: cell-based; conditions: read-out: Activity
[21] = target: T1, Tyrosinase (Agaricus bisporus) (UniProt O42713); assay: Inhibition of mushroom tyrosinase using L-DOPA as substrate assessed as dopaquinone production at 100 uM after 5 mins by microplate reader analysis relative to control
T1 sequence (whole entry): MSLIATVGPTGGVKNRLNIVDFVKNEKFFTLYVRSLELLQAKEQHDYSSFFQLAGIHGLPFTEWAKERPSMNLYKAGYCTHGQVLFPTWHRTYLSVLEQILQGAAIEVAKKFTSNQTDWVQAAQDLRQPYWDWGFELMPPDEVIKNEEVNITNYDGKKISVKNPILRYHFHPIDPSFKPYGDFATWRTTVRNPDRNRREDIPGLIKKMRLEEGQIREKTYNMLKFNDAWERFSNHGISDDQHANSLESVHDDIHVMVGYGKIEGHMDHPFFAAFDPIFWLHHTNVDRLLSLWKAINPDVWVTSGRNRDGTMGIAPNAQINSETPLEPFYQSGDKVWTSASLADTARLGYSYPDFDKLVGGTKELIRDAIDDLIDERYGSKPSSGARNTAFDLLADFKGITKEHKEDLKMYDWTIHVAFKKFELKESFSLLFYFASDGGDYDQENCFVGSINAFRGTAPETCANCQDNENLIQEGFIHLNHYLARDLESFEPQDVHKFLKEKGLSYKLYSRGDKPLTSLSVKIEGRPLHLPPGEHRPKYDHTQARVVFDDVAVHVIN

Chain of Plasminogen (Homo sapiens) (P00747 97-580 limits assumed): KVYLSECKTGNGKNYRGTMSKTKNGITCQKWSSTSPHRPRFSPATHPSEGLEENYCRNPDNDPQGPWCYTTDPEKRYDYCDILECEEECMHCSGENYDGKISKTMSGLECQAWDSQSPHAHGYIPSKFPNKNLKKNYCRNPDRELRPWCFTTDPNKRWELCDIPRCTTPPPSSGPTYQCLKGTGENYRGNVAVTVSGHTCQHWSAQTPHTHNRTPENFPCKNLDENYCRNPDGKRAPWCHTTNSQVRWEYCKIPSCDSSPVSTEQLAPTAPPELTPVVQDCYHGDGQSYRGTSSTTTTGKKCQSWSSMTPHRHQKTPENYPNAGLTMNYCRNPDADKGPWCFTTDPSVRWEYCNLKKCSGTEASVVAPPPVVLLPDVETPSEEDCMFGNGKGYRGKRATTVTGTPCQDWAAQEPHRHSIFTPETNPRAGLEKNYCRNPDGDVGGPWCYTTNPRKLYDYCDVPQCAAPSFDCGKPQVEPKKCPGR
Chain of Plasminogen (Homo sapiens) (P00747 581-810 limits assumed): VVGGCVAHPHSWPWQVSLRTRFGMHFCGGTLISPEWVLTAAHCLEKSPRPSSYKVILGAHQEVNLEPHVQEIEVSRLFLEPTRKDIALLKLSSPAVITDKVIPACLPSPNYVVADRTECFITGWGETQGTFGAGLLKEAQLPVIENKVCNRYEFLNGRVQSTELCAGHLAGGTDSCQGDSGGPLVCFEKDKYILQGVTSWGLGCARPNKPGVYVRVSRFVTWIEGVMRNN

Compound: COc1ccc(-c2oc3cc(O)cc(O)c3c(=O)c2O[C@@H]2O[C@H](CO)[C@@H](O)[C@H](O)[C@H]2O)cc1O
- inhibition at 3 µM [1]: 3.3%
- viability at 70 h, 3 µM [2]: 91.3%
- inhibition [3]: 33.1%
- viability at 70 h, 10 µM [4]: 86.2%
- viability at 70 h, 1 µM [5]: 93.4%
- inhibition at 1 µM [6]: 7.7%
- inhibition at 10 µM [7]: -10.7%

Compound: COc1ccc(-c2cc(=O)c3c(O)cc(O)cc3o2)cc1O[C@@H]1O[C@H](CO)[C@@H](O)[C@H](O)[C@H]1O
- Ratio [8]: 0.93
- inhibition at 30 µM [9]: 44.1%
- Ratio [10]: 1.08
- Ratio [11]: 1.09
- Ratio [12]: 0.77
- Ratio [13]: 0.99
- inhibition at 3 µM [1]: 18%
- Ratio [14]: 0.92
- Ratio [15]: 0.85
- inhibition at 100 µM [16]: 61.5%
- Ratio [17]: 1.22
- viability at 70 h, 3 µM [2]: 91.4%
- Ratio [18]: 1.08
- viability at 70 h, 100 µM [19]: 66.2%
- viability at 70 h, 30 µM [20]: 79.4%
- inhibition [3]: 28.5%
- viability at 70 h, 10 µM [4]: 94.5%
- viability at 70 h, 1 µM [5]: 92.8%
- inhibition at 1 µM [6]: 6.3%
- inhibition at 10 µM [7]: 40.6%

Compound: O=c1cc(-c2ccc(O[C@@H]3O[C@H](CO)[C@@H](O)[C@H](O)[C@H]3O)c(O)c2)oc2cc(O)cc(O)c12
- inhibition at 3 µM [1]: 31%
- viability at 70 h, 3 µM [2]: 105%
- inhibition [21]: 4.4%
- inhibition [3]: 41.7%
- viability at 70 h, 10 µM [4]: 114%
- viability at 70 h, 1 µM [5]: 99.6%
- inhibition at 1 µM [6]: 27.7%
- inhibition at 10 µM [7]: 38.6%

Compound: NC[C@H]1CC[C@H](C(=O)O)CC1
- inhibition [3]: 9.5%

Compound: O=C1CC(c2ccc(O)c(O)c2)Oc2cc(O)cc(O)c21 (racemic)
- Ratio [8]: 0.43
- inhibition at 30 µM [9]: 42.5%
- Ratio [10]: 0.36
- Ratio [11]: 0.38
- Ratio [12]: 0.29
- Ratio [13]: 0.66
- inhibition at 3 µM [1]: 10.3%
- Ratio [14]: 0.55
- Ratio [15]: 0.94
- inhibition at 100 µM [16]: 61.1%
- Ratio [17]: 0.97
- viability at 70 h, 3 µM [2]: 101%
- inhibition [21]: 3.1%
- Ratio [18]: 0.67
- viability at 70 h, 100 µM [19]: 55.9%
- viability at 70 h, 30 µM [20]: 72.6%
- inhibition [3]: 20.7%
- viability at 70 h, 10 µM [4]: 88.2%
- viability at 70 h, 1 µM [5]: 108%
- inhibition at 1 µM [6]: 5.8%
- inhibition at 10 µM [7]: 37.2%

Compound: O=c1cc(-c2ccc(O)c(O)c2)oc2cc(O[C@@H]3O[C@H](CO)[C@@H](O)[C@H](O)[C@H]3O)cc(O)c12 [GALUTEOLIN]
- inhibition at 30 µM [9]: 11%
- inhibition at 3 µM [1]: 14%
- inhibition at 100 µM [16]: 15.1%
- viability at 70 h, 3 µM [2]: 104%
- viability at 70 h, 100 µM [19]: 57.6%
- viability at 70 h, 30 µM [20]: 85.5%
- inhibition [3]: 61%
- viability at 70 h, 10 µM [4]: 103%
- viability at 70 h, 1 µM [5]: 101%
- inhibition at 1 µM [6]: 14.8%
- inhibition at 10 µM [7]: 45.1%

Compound: O=c1c(O[C@@H]2O[C@H](CO)[C@@H](O)[C@H](O)[C@H]2O)c(-c2ccc(O)c(O)c2)oc2cc(O)cc(O)c12 [ISOQUERCETIN]
- inhibition at 30 µM [9]: 23.2%
- inhibition at 3 µM [1]: 33.2%
- inhibition at 100 µM [16]: 20.7%
- viability at 70 h, 3 µM [2]: 100%
- inhibition [21]: 5%
- viability at 70 h, 100 µM [19]: 76.3%
- viability at 70 h, 30 µM [20]: 87%
- inhibition [3]: -2.5%
- viability at 70 h, 10 µM [4]: 95.4%
- viability at 70 h, 1 µM [5]: 99.8%
- inhibition at 1 µM [6]: 16.7%
- inhibition at 10 µM [7]: 20.7%

Compound: O=c1cc(-c2ccc(O)c(O)c2)oc2cc(O)cc(O)c12 [LUTEOLIN]
- Ratio [8]: 0.82
- inhibition at 30 µM [9]: 76.7%
- Ratio [10]: 0.86
- Ratio [11]: 0.46
- Ratio [12]: 0.83
- Ratio [13]: 0.74
- inhibition at 3 µM [1]: 13.5%
- Ratio [14]: 0.89
- Ratio [15]: 0.93
- Ratio [17]: 0.72
- viability at 70 h, 3 µM [2]: 102%
- inhibition [21]: 33.5%
- Ratio [18]: 0.9
- viability at 70 h, 100 µM [19]: 12.6%
- viability at 70 h, 30 µM [20]: 63.8%
- inhibition [3]: 28.7%
- viability at 70 h, 10 µM [4]: 77.2%
- viability at 70 h, 1 µM [5]: 103%
- inhibition at 1 µM [6]: 6.2%
- inhibition at 10 µM [7]: 38.1%

Compound: O=c1c(O)c(-c2ccc(O)c(O)c2)oc2cc(O)cc(O)c12 [QUERCETIN]
- Ratio [8]: 0.59
- inhibition at 30 µM [9]: 72.5%
- Ratio [10]: 0.68
- Ratio [11]: 0.45
- Ratio [12]: 0.7
- Ratio [13]: 0.55
- inhibition at 3 µM [1]: 17.1%
- Ratio [14]: 0.72
- Ratio [15]: 0.68
- Ratio [17]: 0.56
- viability at 70 h, 3 µM [2]: 103%
- Ratio [18]: 0.81
- viability at 70 h, 30 µM [20]: 89.1%
- inhibition [3]: 30.2%
- viability at 70 h, 10 µM [4]: 106%
- viability at 70 h, 1 µM [5]: 104%
- inhibition at 1 µM [6]: 13.9%
- inhibition at 10 µM [7]: 34.3%

Compound: O=c1c(O)c(-c2ccc(O[C@@H]3O[C@H](CO)[C@@H](O)[C@H](O)[C@H]3O)c(O)c2)oc2cc(O)cc(O)c12 [SPIRAEOSIDE]
- inhibition at 30 µM [9]: 34.7%
- inhibition at 3 µM [1]: 24.4%
- inhibition at 100 µM [16]: 21.4%
- viability at 70 h, 3 µM [2]: 107%
- inhibition [21]: 70.7%
- viability at 70 h, 100 µM [19]: 74%
- viability at 70 h, 30 µM [20]: 95.8%
- inhibition [3]: 51%
- viability at 70 h, 10 µM [4]: 106%
- viability at 70 h, 1 µM [5]: 105%
- inhibition at 1 µM [6]: 22.4%
- inhibition at 10 µM [7]: 31.4%

Compound: COc1ccc(-c2cc(=O)c3c(O)cc(O[C@@H]4O[C@H](CO)[C@@H](O)[C@H](O)[C@H]4O)cc3o2)cc1 [TILIANINE]
- inhibition at 3 µM [1]: -1.1%
- viability at 70 h, 3 µM [2]: 98.3%
- inhibition [21]: 5.3%
- inhibition [3]: -8.1%
- viability at 70 h, 10 µM [4]: 74.2%
- viability at 70 h, 1 µM [5]: 93.2%
- inhibition at 1 µM [6]: -5.9%
- inhibition at 10 µM [7]: -36.6%
